We go through 1 molecule from patent US20240342138A1, “MICROTUBULE TARGETING AGENTS” (BPGbio, Inc., priority 2023, published 2024).

The structures appear in SMILES notation.

In series [1] the test system is Triple Negative Breast Cancer patient-derived organoids CTG-1520, CTG-0896, CTG-1017. Put plainly: Viability of PDO models of taxane resistance (CellTiter-Glo, 5 days). The class given is cell-based, human. As to the method: FIGS. 9A and 9B show potency of Compound 1 in patient-derived organoid (PDO) models of taxane resistance. Patient-derived organoids were treated with Compound 1, paclitaxel or controls (0.1% DMSO, positive control—10% DMSO) for 5 days. Viability was assessed using the CellTiter-Glo® assay. IC50 and maximal (max) inhibition values were extrapolated from the viability curves. A) Model overview and dose response curves to Compound 1 and paclitaxel. B) Summary of CellTiter-Glo results in all three models tested. Compiled data of N=4 replicates.
CTG-1520 and CTG-0896 were derived from Triple Negative Breast Cancer (TNBC) patients post-treatment, and progression on a taxane-based therapy and the models' resistance to paclitaxel was confirmed by testing in vivo PDX (Patient-derived xenograft) tumor growth. […] Compound 1 and paclitaxel were tested head-to-head in each model in a dose-curve setting. 10% DMSO was used as the positive control for induction of 100% cell cytotoxicity.
(ATP-based viability assays read luminescence as a measure of living cells.)

Series [2] deals with DU145 tumors. Description: Prostate cancer xenograft model. The series is classed as in vivo, nude mice. As to the method:
FIG. 12A-12E show the efficacy of Compound lin a prostate cancer xenograft model (DU145). A) In vitro potency of Compound 1 in DU145 cells as evaluated by ATPlite 1Step™ Perkin Elmer (performed by NTRC Oncolines). B) DU145 cells were implanted subcutaneously in nude mice and tumors were allowed to grow to a volume of 210 mm^3 followed by randomization of animals into three (3) groups (vehicle control, 75 mg/kg, 150 mg/kg Compound 1) with 12 animals per group. A Compound 1 solid dispersion was prepared prior to each dosing and administered by oral gavage two times a day (BID). Mean tumor volume of each group over time and the growth of tumor in each individual animal was graphed. For each individual animal of vehicle group TGI (%) was calculated based on the tumor growth inhibition of individual tumor at each given day of the study compared to the average of the group for that given day of the study. P-values were calculated using two-tailed distribution and two-sample equal variance (homoscedastic) for each group treated with Compound 1 for each given day of the study in reference to vehicle control. NS p>0.05; *p≤0.05; **p≤0.01; ***p p≤0.001; **** p≤0.0001. C) Plasma and tumor tissues from vehicle (n=11), 75 mg/kg (n=12), and 150 mg/kg (n=12) groups were harvested at the end of the study. The concentration of Compound lin the plasma or tumor tissue was plotted as a column plot (Average t SEM) or Scatter Plot with Median. D) Tumor tissues from vehicle (n=12), 75 mg/kg (n=12) and 150 mg/kg (n=12) groups were harvested at the end of the study when each animal was sacrificed. The level of two biomarkers, pHH3 and CCNB1 in each tissue was measured and graphed as the Min-to-Max plot and scatter plot of the level of each biomarker. The line in the scatter plot indicates the group mean. E) Body weight of each individual animal was measured on days 0, 2, 5, 7, 9, 12, 14, 16, 19, 21, 23, and 26 and graphed using Graphpad Prism.
Anti-tumor efficacy of Compound 1 was evaluated against three (3) different preclinical oncology mice models of colorectal cancer, prostate cancer, and lung adenocarcinoma (see Table 5 below). For this purpose, an oral formulation of Compound 1 was used.
DU145 is an epithelial cell carcinoma derived from the metastatic site (brain). DU145 cells were implanted subcutaneously in nude mice and tumors were allowed to grow to an average volume of 106 mm^3 followed by randomization into three (3) groups consisting of vehicle control, 75 mg/kg and 150 mg/kg Compound 1 (12 animals per group). A Compound 1 solid dispersion was administered by oral gavage two times a day (BID). All animals, except one animal from vehicle group, survived throughout the 26 days of the study. Any animal that left the study prior to Day 26 was eliminated from all calculations. The percentage of tumor growth inhibition (TGI %) was calculated for each individual tumor. The mean tumor volume of each group over time and the growth of tumor in each individual animal is plotted below. The percentage of tumor growth inhibition (TGI %) was calculated for each individual animal.

The subject of series [3] is CTG-1520 PDX tumors. Description: CTG-1520 PDX tumor growth in nude mice. The class given is in vivo. The method, then:
FIG. 10A-10C show potency of Compound 1 in a patient-derived organoid model of taxane resistance. A) Overview of study design. B) CTG-1520 was implanted subcutaneously in nude mice and tumors were allowed to grow to a volume of 210 mm^3 followed by randomization of animals into three (3) groups (vehicle control, 75 mg/kg, 150 mg/kg Compound 1) with 12 animals per group. A Compound 1 solid dispersion was prepared prior to each dosing and administered by oral gavage two times a day (BID). Mean tumor volume of each group over time and the growth of tumor in each individual animal was graphed. For each individual animal of vehicle group tumor growth inhibition (TGI) % was calculated based on the tumor growth inhibition of individual tumor at each given day of the study compared to the average of the group for that given day of the study. P-values were calculated using two-tailed distribution and two-sample equal variance (homoscedastic) for each group treated with Compound 1 for each given day of the study in reference to vehicle control. ns p>0.05; *p≤0.05; **p≤0.01. C) Body weight of each individual animal was measured on days 0, 3, 6, 10, 13, and 17 and graphed using Graphpad Prism.
In a next step, the ability of Compound 1 to inhibit the growth of CTG-1520 PDX in nude mice was assessed. CTG-1520 was implanted subcutaneously in nude mice and tumors were allowed to grow to a volume of 210 mm^3 followed by randomization of animals into three (3) groups (vehicle control; 75 mg/kg, and 150 mg/kg Compound 1) with 12 animals per group (see FIG. 10A). A Compound 1 solid dispersion was administered by oral gavage two times a day (BID). All animals, except one (1) from the vehicle control group, survived through the study (17 days). One (1) animal from the vehicle control group reached the endpoint of 2000 mm^3 prior to day 17 and was eliminated from all calculations.

`COc1ccccc1-c1nc(CNC(=O)c2ccccc2OC(F)F)n[nH]1` [Compound 1, 2-(difluoromethoxy)-N-[[5-(2-methoxyphenyl)-1H-1,2,4-triazol-3-yl]methyl]benzamide]: in series [1] (CTG-1520, CTG-0896, CTG-1017, FIG. 9), the “Potency in PDO models” value is recorded as “potent in all three (3) PDO models tested”. Further, the “Retention of potency in matched PDO models” value in series [1] (same patient before (CTG-1017) and after (CTG-1520) taxane-based chemotherapy) is reported as “retained potency”. The “TGI (%)” value in series [2] (75 mg/kg BID oral, day 26) was determined as 22%. Further, the “Level of the drug in the plasma and tumor tissue” value in series [2] (75 mg/kg to 150 mg/kg, FIG. 12C) is recorded as “dose-dependent increase”. In series [2] (150 mg/kg BID oral (b152 prints 150 mg/g), day 26), the “Maximum TGI (%), end of the study” value is 38%. Besides, the Body weight result in series [2] (26 days, FIG. 12E) is “no body weight loss related to the drug”; in series [3] (75 and 150 mg/kg BID, FIG. 10C), “No body weight loss”. Besides, the “Level of biomarkers CCNB1 and pHH3” value in series [2] (tumor tissue, FIG. 12D) is “increase”. In series [3] (75 mg/kg BID oral gavage, 17 days), the “Tumor volume relative to vehicle control” value was “reduced tumor volume relative to the vehicle control, but to a lesser extent than the 150 mg/kg dose”. Also, in series [3] (150 mg/kg BID oral gavage, 17 days), the Tumor growth inhibition entry was “significant tumor growth inhibition”.
